# Measurements published in EP1322622B1, “NEW N, N'-DISUBSTITUTED BENZIMIDAZOLONE DERIVATIVES WITH AFFINITY AT THE SEROTONIN AND DOPAMINE RECEPTORS” (Sprout Pharmaceuticals, Inc., priority 2000, dated 2002).
# Target: T1, CHO/5-HT1A cells (Homo sapiens, UniProt P08908)
# T1 construct: expressed in transfected cells; host or cells: CHO/5-HT1A cells
# T1 sequence (P08908 1-422): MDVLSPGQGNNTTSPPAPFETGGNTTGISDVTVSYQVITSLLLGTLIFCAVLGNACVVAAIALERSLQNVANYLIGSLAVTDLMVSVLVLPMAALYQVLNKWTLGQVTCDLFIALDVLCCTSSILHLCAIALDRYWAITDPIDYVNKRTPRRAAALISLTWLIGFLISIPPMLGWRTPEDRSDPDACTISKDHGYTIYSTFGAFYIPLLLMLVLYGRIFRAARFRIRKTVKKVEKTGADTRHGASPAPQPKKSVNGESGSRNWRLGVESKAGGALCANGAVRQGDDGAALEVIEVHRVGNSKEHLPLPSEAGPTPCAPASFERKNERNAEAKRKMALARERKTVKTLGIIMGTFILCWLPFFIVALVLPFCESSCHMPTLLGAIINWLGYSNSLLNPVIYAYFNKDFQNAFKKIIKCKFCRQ
# Assay: 5-HT1A Functional assay (cAMP)
# Assay type: cell-based
# Details: 10 µM compound; % inhibition of the cAMP accumulation induced by 10 µM FSK
# Procedure: CHO/5-HT1A cells were random seeded at a density of about 200,000/well in 24 well plates the day prior to the experiment. On the day of the experiment, cells were pretreated for 15 min at 37 °C with 500 µM isobuthylmethylxantine (IBMX) dissolved in culture medium without serum. Wells were then divided in different groups in duplicate as follows: control, 10 µM FSK, 10 µM FSK + 1 µM 5-HT as positive standard and 10 µM FSK + 10 µM of the different compound under evaluation. Sample solutions were added and incubated for additional 15 min at 37 °C. After incubation, medium was aspirated and the reaction stopped by adding 200 µl of lysis buffer. Plates were shaken for 5 min, then the lysate was removed and samples were stored at 4 °C until the day of the assay. For the cAMP evaluation, samples were properly diluted and the cAMP content was measured by an enzymeimmunoassay system.
row,Compound,5-HT1A cAMP % inhib. [%]
1,COCCn1c(=O)n(CC=CCN2CCN(c3cccc(C(F)(F)F)c3)CC2)c2ccccc21 [compound 301],83

# Same assay, conditions: 10 µM compound; % inhibition of the cAMP accumulation induced by 10 µM FSK; read-out: 5-HT1A cAMP % inhib.
row,inhibition at 10 µM [%],Compound
1,63,O=c1n(C/C=C\CN2CCN(c3cccc(Cl)c3)CC2)c2ccccc2n1CCN1CCOCC1 [compound 263]
2,82,COCCn1c(=O)n(C/C=C/CN2CCN(c3ccccn3)CC2)c2ccccc21 [compound 296]
3,74,COCCn1c(=O)n(C/C=C/CN2CCN(c3cccc(Cl)c3)CC2)c2ccccc21 [compound 297]

row,Compound,inhibition at 10 µM [%]
1,COCCn1c(=O)n(CC=CCN2CCN(c3cccc(C(F)(F)F)c3)CC2)c2ccccc21 [compound 284],82

# Target: T2, D4 human receptors (Homo sapiens, UniProt P21917)
# T2 construct: expressed in transfected cells; host or cells: CHO cells
# T2 sequence (P21917 1-419): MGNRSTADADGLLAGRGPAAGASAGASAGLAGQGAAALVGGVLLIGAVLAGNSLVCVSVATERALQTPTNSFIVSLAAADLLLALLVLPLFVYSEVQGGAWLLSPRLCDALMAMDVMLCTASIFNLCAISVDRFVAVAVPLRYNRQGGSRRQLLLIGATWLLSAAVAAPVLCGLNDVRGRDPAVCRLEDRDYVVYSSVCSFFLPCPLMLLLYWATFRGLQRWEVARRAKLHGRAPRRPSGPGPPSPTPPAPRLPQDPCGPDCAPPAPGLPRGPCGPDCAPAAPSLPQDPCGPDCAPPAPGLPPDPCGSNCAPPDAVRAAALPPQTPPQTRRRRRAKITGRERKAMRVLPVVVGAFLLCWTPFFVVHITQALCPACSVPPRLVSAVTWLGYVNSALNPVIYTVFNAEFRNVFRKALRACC
# Assay: D4 Radioligand Receptor Binding Assay ([3H] YM-09151-2, CHO cell membranes)
# Details: compound at 10^-7 M, singlicate; [3H] YM-09151-2 0.15-0.25 nM; read-out: D4 receptor binding assay % inhib. (10^-7 M)
# Procedure: Membranes from CHO cells, expressing D4 human receptors were suspended in incubation buffer.
# Binding assays were performed in MultiProbe 204 pipetting system (Packard), according to a predetermined mapping, consistent with the software Screen. The compounds were tested in singlicate at one concentration (10^-7 M) in a total volume of 1000 µl (980 µl of diluted membranes, 10 µl DMSO or unlabelled ligand and 10 µl of [^3H] YM-09151-2 (0.15-0.25 nM). After incubation for 120 min at 27 °C, the reaction was stopped by rapid filtration through Tomtec cell Harvester (48 wells) using Filtermat B (presoaked in 0.1% PEI) filters. Filters were washed with ice-cold 50 mM Tris-HCl (pH 7.4) buffer (9 x 700 µl), dryed, covered with MeltiLex B/HS (Wallac) scintillator sheets and heated in oven at 80-90 °C for about 10 min, transferred into plastic sample bags (Wallac), sealed and put into 1024 Beta Plate scintillation counter (Wallac). Non specific binding was determined in the presence of clozapine dissolved in DMSO to a final concentration of 10^-5 M.
# (§1) The specific radioligand binding to the receptor was defined by the difference between total binding and non specific binding, determined in the presence of an excess of unlabelled ligand. Results were expressed as percentage of control specific binding obtained in the presence of the compounds.
row,Compound,inhibition at 0.1 µM [%]
1,O=c1n(CCO)c2ccccc2n1CCCCN1CCN(c2ccccn2)CC1 [compound 59],51
2,O=c1n(CCO)c2ccccc2n1CCCCN1CCc2c([nH]c3ccccc23)C1 [compound 62],96
3,O=c1n(CCO)c2ccccc2n1CCCCN1CC=C(c2ccccc2)CC1 [compound 65],74
4,O=c1n(CCO)c2ccccc2n1CCCCN1CCN(c2ccc(Cl)c(Cl)c2)CC1 [compound 66],99
5,COc1ccccc1N1CCN(CCCCn2c(=O)n(CCO)c3ccccc32)CC1 [compound 74],62
6,CCNC(=O)OCCn1c(=O)n(CCCCN2CCN(c3ccccc3)CC2)c2ccccc21 [compound 75],54

# More lines, now with the values ahead:
row,inhibition at 0.1 µM [%],Compound
1,35,O=c1n(CCN2CCCCC2)c2ccccc2n1CCN1CCN(c2cccc(C(F)(F)F)c2)CC1 [compound 149]
2,52,O=c1n(CCN2CC=C(c3ccccc3)CC2)c2ccccc2n1CCN1CCCCC1 [compound 150]
3,50,COc1ccccc1N1CCN(CCn2c(=O)n(CCN3CCCCC3)c3ccccc32)CC1 [compound 159]
4,44,CCNC(=O)OCCn1c(=O)n(CCN2CCN(c3ccccc3OC)CC2)c2ccccc21 [compound 216]
5,51,O=c1n(CCN2CCOCC2)c2ccccc2n1CCN1CCN(c2cccc(Cl)c2)CC1 [compound 224]
6,34,O=c1n(CCN2CC=C(c3ccccc3)CC2)c2ccccc2n1CCN1CCOCC1 [compound 229]
7,32,CS(=O)(=O)NCCn1c(=O)n(CCN2CCN(c3cccc(Cl)c3)CC2)c2ccccc21 [compound 241]
8,33,COc1ccccc1N1CCN(CCn2c(=O)n(CCNS(C)(=O)=O)c3ccccc32)CC1 [compound 255]
9,51,Cc1cccc(N2CCN(CCn3c(=O)n(CCNS(C)(=O)=O)c4ccccc43)CC2)c1 [compound 256]

# Target: T3, 5-HT1A human receptors (Homo sapiens, UniProt P08908)
# T3 construct: expressed in transfected cells; host or cells: CHO cells
# T3 sequence (P08908 1-422): T1 sequence (P08908 1-422)
# Assay: 5-HT1A Radioligand Receptor Binding Assay ([3H]-8-OH-DPAT, CHO cell membranes)
# Details: compound at 10^-7 M, singlicate; [3H]-8-OH-DPAT 0.6-0.7 nM; read-out: 5-HT1A receptor binding assay % inhib. (10^-7 M)
# Procedure: Membranes from CHO cells, expressing 5-HT1A human receptors were suspended in incubation buffer.
# The compounds were tested in singlicate at one concentration (10^-7 M) in a total volume of 1000 µl. 980 µl of diluted membranes, 10 µl DMSO or unlabelled ligand and 10 µl of [^3H]-8-OH-DPAT (0.6-0.7 nM) were incubated for 60 min at 27 °C. The reaction was stopped by rapid filtration through Tomtec cell Harvester (48 wells) using Filtermat B (presoaked in 0.1% PEI) filters. […] Non specific binding was determined in the presence of 5-HT (10^-5 M).
# as §1
# The affinity values (IC50) for the compounds were obtained by a non linear least squares regression analysis on the basis of a one binding site model.
row,Compound,inhibition at 0.1 µM [%]
1,O=c1n(CCO)c2ccccc2n1CCCCN1CCN(c2ccccn2)CC1 [compound 59],75
2,O=c1n(CCO)c2ccccc2n1CCCCN1CCc2c([nH]c3ccccc23)C1 [compound 62],73
3,O=c1n(CCO)c2ccccc2n1CCCCN1CC=C(c2ccccc2)CC1 [compound 65],52
4,O=c1n(CCO)c2ccccc2n1CCCCN1CCN(c2ccc(Cl)c(Cl)c2)CC1 [compound 66],65
5,COc1ccccc1N1CCN(CCCCn2c(=O)n(CCO)c3ccccc32)CC1 [compound 74],92
6,CCNC(=O)OCCn1c(=O)n(CCCCN2CCN(c3ccccc3)CC2)c2ccccc21 [compound 75],67

# The next lines start with the values.
row,inhibition at 0.1 µM [%],Compound
1,88,O=c1n(CCN2CCCCC2)c2ccccc2n1CCN1CCN(c2cccc(C(F)(F)F)c2)CC1 [compound 149]
2,57,O=c1n(CCN2CC=C(c3ccccc3)CC2)c2ccccc2n1CCN1CCCCC1 [compound 150]
3,85,COc1ccccc1N1CCN(CCn2c(=O)n(CCN3CCCCC3)c3ccccc32)CC1 [compound 159]
4,92,CCNC(=O)OCCn1c(=O)n(CCN2CCN(c3ccccc3OC)CC2)c2ccccc21 [compound 216]
5,98,O=c1n(CCN2CCOCC2)c2ccccc2n1CCN1CCN(c2cccc(Cl)c2)CC1 [compound 224]
6,67,O=c1n(CCN2CC=C(c3ccccc3)CC2)c2ccccc2n1CCN1CCOCC1 [compound 229]
7,69,CS(=O)(=O)NCCn1c(=O)n(CCN2CCN(c3cccc(Cl)c3)CC2)c2ccccc21 [compound 241]
8,58,COc1ccccc1N1CCN(CCn2c(=O)n(CCNS(C)(=O)=O)c3ccccc32)CC1 [compound 255]
9,59,Cc1cccc(N2CCN(CCn3c(=O)n(CCNS(C)(=O)=O)c4ccccc43)CC2)c1 [compound 256]
